Test results as given in the OPERA property sets (Mansouri et al. 2018).

Structure (SMILES) | logP
Nc1ccc2c3c(cccc13)-c1ccccc1-2 | 4.2
O=C1Nc2ccc([N+](=O)[O-])cc2C1=O | 0.47
Nc1ccc(Cl)cc1[N+](=O)[O-] | 2.72
COc1ccc(N)c(C)c1 | 1.23
Nc1cccc2cc3ccccc3cc12 | 3.69
Nc1cccc(C(F)(F)F)c1 | 2.29
Cc1ccc2cccc([N+](=O)[O-])c2n1 | 1.99
O=[N+]([O-])c1cccc2c([N+](=O)[O-])cccc12 | 2.58
Nc1ccc2ccc3cccc4ccc1c2c34 | 4.31
Nc1cc(Cl)ccc1O | 1.81
O=[N+]([O-])c1ccc2c3c(cccc13)CC2 | 3.85
Cc1ccc(N)c(N)c1 | 0.66
Cc1ccc(C)c(N)c1 | 1.83
Nc1cc2ccccc2c2ccccc12 | 3.56
O=[N+]([O-])c1cccc2cccc([N+](=O)[O-])c12 | 2.52
COc1cc(-c2ccc(N)c(OC)c2)ccc1N | 1.81
O=[N+]([O-])c1cc([N+](=O)[O-])c2ccccc2c1 | 2.83
Cc1ccc(N)cc1N | 0.14
Nc1cccc2c1Cc1ccccc1-2 | 3.18
O=[N+]([O-])c1ccc2ccccc2c1 | 3.24
Nc1ccccc1-c1ccccc1N | 1.34
Nc1ccc(Oc2ccccc2)cc1 | 2.96
Nc1ccc2c(c1)Cc1ccccc1-2 | 3.14
Cc1ccc(O)c(N)c1 | 1.16
